≈ marks a conversion by molar mass, not a printed value. Like-named read-outs stand apart in the source and are kept apart here.
Key:
[1] = tested on: Trypanosoma cruzi (Tulahuen C2C4 strain); experiment: American trypanosoma protozoa proliferation inhibition screening test; type: cell-based; conditions: Tulahuen C2C4 strain in rat L6 cells, 96 hours, CPRG/Nonidet
Procedure: In this experiment, amastigote and trypomastigote of Trypanosoma cruzi (Tulahuen C2C4 strain) infected to rat L6 cells were used. The medium used in the experiment was prepared as follows: to RPMI 1640 medium containing L6 cells, L-glutamine (200 mM) and fetal bovine serum was added to achieve concentration of 1% and 10%, respectively. The culture was conducted under CO2 concentration 5% and temperature 37° C.
Either the compound of the invention or a positive control (benznidazole) was dissolved into DMSO to prepare test solution having predefined concentration. To each well in a 96-well culture plate, medium containing 5×10^3 protozoa was added and precultured for 48 hours. After replacing the medium, either the test solution containing compound of the invention in predefined concentration or DMSO without compound was added. The test solution was duplicated.
The plate was cultured in an incubator for 96 hours, and the proliferation inhibition activity was examined. The activity was determined as follows. To each well, 50 μL CPRG/Nonidet was added, then left for 2 to 6 hours. Then the culture plate was mounted on an absorption microplate reader to determine absorption at 540 nm. The trypanosoma infection rate of the sample containing the test compound and that of the control sample was calculated.
(§1) Using the protozoa infection rate thus obtained, the proliferation inhibition rate was calculated according to the following equation to determine 50% proliferation inhibition concentration (EC50).
(§2) Proliferation inhibition rate(%)={1−(b−a)/(c−a)}×100
(§3) a: initial infection rate b: infection rate of the test compound solution c: infection rate of the control

[2] = tested on: Plasmodium Falciparum k1 strain; experiment: Chloroquine-resistant tropical malaria protozoa proliferation inhibition screening test; type: cell-based; conditions: for Selective toxicity: EC50 rat L6 cells / EC50 Chloroquine-resistant malaria protozoa; for EC50: Plasmodium falciparum
Procedure: In this experiment, Plasmodium Falciparum k1 strain protozoa were used. The medium used in the experiment was filter-sterilized RPMI-1640 medium. To the medium human serum was added to achieve 5% concentration. The protozoa was cultured under condition of O2 concentration 3%, CO2 concentration 4%, N2 concentration 93%, and temperature 37° C.
The cultured malaria infected red blood cells were collected by centrifugation, diluted with non-infected red blood cells, to achieve initial infection rate 0.15%. The hematocrit was 2.5%.
To each well in a 96-well culture plate, 200 μL malaria infected culture was added, and either test solution containing test compound at predefined concentration or DMSO having no test compound was added. Each test solution was prepared in duplicate. After 48 hours culture under 37° C., hypoxanthine labeled with radioactive tritium (^3H) of 0.5 μCi was added to each well. After culturing under same condition for 24 hours, the product was collected on a glass fiber filter and washed. The intensity of radiation was measured by Beta plate liquid scintillation counter (Wallac Inc.), to determine malaria protozoa infection rate in test compound samples and control samples.
Using the malaria protozoa infection rate, the proliferation inhibition rate was calculated according to the following equation to determine 50% proliferation inhibition concentration (EC50).
as §2
(§4) a: initial infection rate b: infection rate of test compound solution c: infection rate of the control

[3] = Rat L6 cell proliferation inhibition test; type: cell-based; conditions: read-out: EC50 cytotoxicity L6
Procedure: (§5) Rat-derived L6 cells (rat skeletal myoblast cell) were used for this test. […] The sample was cultured under CO2 concentration 5% and temperature 37° C. Either the composition of the invention or control was dissolved into DMSO, to prepare test solutions having predefined concentration.
(§6) The samples were precultured until logarithmic growth phase was reached. Then the culture was transferred to each well in a 96-well culture plate, and either test solution containing test compound at predefined concentration or DSMO without compound was added. The test solution was duplicated.
(§7) The plate was cultured in an incubator for 72 hours, to examine proliferation inhibition activity. The activity was examined as follows. Alamar Blue water solution 10 μL was added to each well, and culture was continued for 2 hours. Next, the culture plate was mounted on a fluorescence microplate reader (Spectramax Gemeni XS; Molecular Devices Corporation, U.S.), and irradiated with excitation wavelength 536 nm to determine fluorescence at 588 nm. The survival rate of L6 cells in the test solution sample and control sample was calculated.
(§8) Proliferation inhibition rate(%)={(C−A)/(B−A)}×100
(§9) A: Initial cell count B: Cell count in control after 3 days C: Cell count in test solution after 3 days

[4] = tested on: Trypanosoma brucei rhodensiense (STIB 900 strain); experiment: African trypanosoma protozoa proliferation inhibition screening test; type: cell-based; conditions: for EC50 Trypanosoma brucei rhod.: STIB 900 bloodstream form, 72 hours, Alamar blue
Procedure: In this experiment, bloodstream form trypomastigote of Trypanosoma brucei rhodensiense (STIB 900 strain) was used. The medium used in the experiment was prepared as follows: to filter-sterilized MEM medium, 25 mM N-2-hydroxyethylpiperazine-2-ethane sulfonate (HEPES), 1 g/L glucose, 1% MEM nonessential amino acid, 0.2 mM 2-mercaptoethanol, 2 mM pyruvic calcium salt, 0.1 mM hypoxanthine, and 15% heat-treated horse serum were added. The protozoa was cultured under atmosphere of CO2 concentration 5% and temperature 37° C.
Either the compound of the invention or a positive control (melarsoprol) was dissolved into dimethylsulfoxide (DMSO) to prepare test solution having predefined concentration. To each well in a 96-well culture plate, medium containing 8×10^3 protozoa, and either test solution containing the test compound at predefined concentration or DMSO without compound was added. Then medium was added to achieve 100 μL. The test solution was duplicated.
The culture plate was cultured in an incubator for 72 hours, and the proliferation inhibition activity was examined. The activity was determined as follows. To each well, 10 μL Alamar blue water solution was added, then the plate was again cultured for 2 hours. Then the culture plate was mounted on a fluorescence microplate reader (Spectramax Gemeni XS; Molecular Devices Corporation, U.S.), and irradiated with 536 nm excitation wavelength to determine fluorescence at 588 nm. The trypanosoma infection rate of the sample containing the test composition and that of the control sample was calculated.
as §1, §2, §3

[5] = tested on: Plasmodium berghei NK 65 strain; experiment: animal or person; type: in vivo; conditions: for Survival days (mean survival days, treatment group minus control group) / Recovery Rate (suppression): dose 25 mg/kg/d intraperitoneally, 4 days; for Recovery Rate (suppression): P. berghei infected ICR mice
Text: For a test to evaluate therapeutic effect of the compound, 4-day suppressive test which is commonly used for in vivo test to evaluate activity of anti-malaria compound was used. In this experiment, rodent malaria protozoa (Plasmodium berghei NK 65 strain) were used. The infected blood was collected from 5-weeks age (SPF) ICR strain male mouse which were infected intraperitoneally and successively cultured. From the caudal vein of the infected mouse, blood was collected to calculate infection rate. After confirming that infection rate was adequately elevated (10% to 20% infection), the malaria infected blood was collected from the heart of the mouse. The infection rate and count of the red blood cells (cells/mL) were calculated. The infected red blood cell was diluted with PBS buffer to achieve […] protozoa per 0.2 mL dose. The infected cells were injected to the caudal vein of uninfected mouse (ICR strain, male, 5-weeks age) to cause infection. Five mice were made into one group, and the test compound was administered in predefined concentration. From 2 hours after infection, the compound was administered every 24 hours for straight 4 days.
The compound of the invention to be used in this test was dissolved in saline (Otsuka Pharmaceutical Co., Ltd.) to obtain test solution of predefined concentration. When the compound was not dissolved in saline, it was dissolved in SSV (saline containing 0.5% sodium=carboxymethyl cellulose, 0.5% benzyl alcohol, 0.4% Tween 80) to prepare test solution. For the control group (non-treatment group), only saline (Otsuka) was administered. Positive controls S-1 to S-5 were dissolved in saline (Otsuka) or SSV in predetermined concentration to prepare test solution. When the compound was not dissolved in saline, it was dissolved in SSV. After measuring weight of each mouse, the dose for each mouse was calculated to achieve 5.0 to 40 mg concentration for weight1 kg.
Five mice were made into one group, and the test compound was administered intraperitoneally at predefined concentration. From 2 hours after infection, the compound was administered every 24 hours for straight 4 days. Subsequent to the 24 hours after last treatment, blood was collected from the tail of the mouse to prepare thin layer smear in order to count malaria protozoa infection in the treatment group and the control group under microscope. The mice showing maximum value and minimum value were excluded from the average calculation (average was calculated for three mice), to determine malaria protozoa infection rate (Parasitemia).
Using malaria protozoa infection rate thus calculated, recovery rate obtained from the test compound (suppression) was determined.
Recovery rate: suppression(%)=(b−a)/b×100 a: Protozoa infection rate in the treatment group b: Protozoa infection rate in the control group Mean survival days: MSD(day)=c−d c: Average days from the initial treatment (date of malaria infection) to the date of death for the treatment group (5 mice) d: Average days from the date of malaria infection to the date of death for the non-treatment (control) group (5 mice) […]
Tables 5 to 7 illustrate the recovery rate (%) and survival days (day) of malaria infected mice treated with intraperitoneal injection of the test compound and the control compound at predefined concentration. The meaning of symbols in the table is as follows.

[6] = tested on: Rat-derived L6 cells (rat skeletal myoblast cell); experiment: Rat L6 cell proliferation inhibition test; type: cell-based; conditions: Alamar Blue
Procedure: as §5, §6, §7, §8, §9

[7] = tested on: Leishmania donovani (MHOM/ET/67/L82 strain); experiment: Leishmania protozoa proliferation inhibition screening test; type: cell-based; conditions: amastigote, 72 hours, Alamar blue
Procedure: In this experiment, Leishmania donovani (MHOM/ET/67/L82 strain) was used. The protozoa were successively cultured in Syrian Golden hamsters to obtain amastigote. The medium used in the experiment was SM medium having heat-treated fetal bovine serum 10% added, and pH prepared to 5.4. The culture was conducted under CO2 concentration 5% and temperature 37° C.
Either the compound of the invention or a positive control (miltefosine) was dissolved into DMSO to prepare test solution having predefined concentration. To each well of a 96-well culture plate, medium containing predetermined number of protozoa was added and the culture was pre-treated. The concentration of amastigote was determined by CASY cell analyze system (Scharfe GMBH Co., Germany). Subsequently, either test solution containing compound of the invention in predefined concentration or DMSO without compound was added. The test solution was duplicated.
The plate was cultured in an incubator for 72 hours, and the proliferation inhibition activity was examined. The activity was determined as follows. To each well, 10 μL Alamar blue aqueous solution was added, then cultured again for 2 hours. Then the culture plate was mounted on a fluorescence microplate reader (Spectramax Gemeni XS; Molecular Devices Corporation, U.S), and irradiated 536 nm excitation wavelength to determine […] at 588 nm. The leishmania infection rate of the sample containing the test compound and that of the control sample was calculated.
as §1, §2, §4

[8] = chloroquine-resistant K1 strain, 3H-hypoxanthine uptake, read-out: EC50 P. falciparum K1
[9] = L6 cells (rat skeletal myoblasts), Table 1, Alamar Blue
[10] = chloroquine-resistant K1 strain, 3H-hypoxanthine uptake

SMILES: O=C(Cn1ccnc1[N+](=O)[O-])NCc1ccccc1 [Benznidazole, reference compound]
- EC50 ([1]; Trypanosoma cruzi, read-out: EC50 Trypanosoma cruzi): 0.87 µg/mL (≈ 3.34 µM)

SMILES: CCN1C(=O)/C(=c2\nc3c(s2)=CC=CN3C)S/C1=N\c1cccc[n+]1C.[Cl-] [Compound A-22]
- Selective toxicity [2]: >782
- EC50 [2, 8]: 0.0115 µg/mL
- EC50 at 72 h [3, 9]: > 90 µg/mL

SMILES: Nc1nc(N)nc(Nc2ccc([As]3SCC(CO)S3)cc2)n1 (stereo not shown) [Melarsoprol, reference compound]
- EC50 at 72 h ([3]; Table 2, rat L6 cells, Alamar Blue): 3.1 µg/mL
- Selective toxicity ([4]; EC50 rat L6 cells / EC50 African trypanosoma protozoa): 1300
- EC50 ([4]; Trypanosoma brucei, STIB900, 72 h, read-out: EC50 Trypanosoma brucei rhod.): 0.0024 µg/mL

SMILES: CCn1c(=O)/c(=C2\SCCN2C)s/c1=C1\S/C(=N\c2scc[n+]2C)N(C(C)C)C1=O [Compound B-35]
- Selective toxicity [2]: 3630
- EC50 [2, 8]: 0.006 µg/mL
- EC50 at 72 h [3, 9]: 21.8 µg/mL
- inhibition in vivo at 25 mg/kg/day ([5]; Plasmodium berghei, ip, 96 h, read-out: Recovery Rate (suppression)): 63.5%
- Survival days (mean survival days, treatment group minus control group) [5]: 3.5 days

SMILES: CCN1C(=O)/C(=c2/s/c(=C3/C=CC=CN3C)c(=O)n2CC)S/C1=N\c1sc2cc(F)ccc2[n+]1C [Compound B-32]
- EC50 P. falciparum K1 [2, 10]: 0.0162 µg/mL
- EC50 cytotoxicity L6 ([6]; Table 1, 72 hours): 15.88 µg/mL
- EC50 cytotoxicity L6 ([6]; Table 2, 72 hours): 15.88 µg/mL
- EC50 cytotoxicity L6 ([6]; Table 4, 72 hours): 15.88 µg/mL
- EC50 Trypanosoma brucei rhod. [4]: 0.1585 µg/mL
- EC50 Leishmania donovani [7]: 0.2195 µg/mL
- Survival days (mean survival days, treatment group minus control group) [5]: 4.8 days
- Recovery Rate (suppression) [5]: 79.5%

SMILES: CCN(CC)CCCC(C)Nc1ccnc2cc(Cl)ccc12 (stereo not shown) [Chloroquine, reference compound]
- Selective toxicity [2]: 1300
- EC50 ([2]; K1, read-out: EC50 P. falciparum K1): 0.047 µg/mL (≈ 0.147 µM)
- EC50 at 72 h ([3]; Table 1, rat L6 cells, Alamar Blue): 60 µg/mL (≈ 188 µM)

SMILES: CCCCCCCCCCCCCCCCOP(=O)([O-])OCC[N+](C)(C)C [Miltefosine, reference compound]
- EC50 ([7]; Leishmania donovani, read-out: EC50 Leishmania donovani): 0.11 µg/mL (≈ 0.27 µM)

SMILES: CCn1c(=O)/c(=c2\nc3c(o2)=CC=CN3C)s/c1=C1\S/C(=N\c2scc[n+]2C)N(Cc2ccccc2)C1=O [Compound B-22]
- EC50 P. falciparum K1 [2, 10]: 0.005 µg/mL
- EC50 cytotoxicity L6 ([6]; Table 1, 72 hours): >90 µg/mL
- EC50 Trypanosoma brucei rhod. [4]: 0.068 µg/mL
- Survival days (mean survival days, treatment group minus control group) [5]: 9.0 days
- Recovery Rate (suppression) [5]: 72.4%

SMILES: C=CCN1C(=O)/C(=c2/s/c(=C3/SCCN3C)c(=O)n2CC)S/C1=N\c1sc2cc(Cl)ccc2[n+]1C [Compound B-39]
- EC50 cytotoxicity L6 ([6]; Table 2, 72 hours): 3.72 µg/mL
- EC50 cytotoxicity L6 ([6]; Table 3, 72 hours): 3.72 µg/mL
- EC50 cytotoxicity L6 ([6]; Table 4, 72 hours): 3.72 µg/mL
- EC50 Trypanosoma brucei rhod. [4]: 0.141 µg/mL
- EC50 Trypanosoma cruzi [1]: 0.141 µg/mL
- EC50 Leishmania donovani [7]: 0.049 µg/mL
- Survival days (mean survival days, treatment group minus control group) [5]: 4.5 days
- Recovery Rate (suppression) [5]: 77.7%

— patent US20090076067A1, “PHARMACEUTICAL COMPOSITION COMPRISING AZARHODACYANINE COMPOUND AS ACTIVE INGREDIENT” (priority 2005, published 2009)
